Entries after “also recorded” stand apart in the source; their conditions may differ.
Experiments:
TLR8 = molecular target: T1, TLR8 (Mus musculus, UniProt P58682); assay: TNF-α secretion ELISA after TLR8 agonist TL8-506 in RAW 264.7 cells; format: cell-based; details: SK41, SK50, SK58, SK64
T1 construct: endogenous in cells; host or cells: RAW 264.7
T1 sequence (P58682 24-1032): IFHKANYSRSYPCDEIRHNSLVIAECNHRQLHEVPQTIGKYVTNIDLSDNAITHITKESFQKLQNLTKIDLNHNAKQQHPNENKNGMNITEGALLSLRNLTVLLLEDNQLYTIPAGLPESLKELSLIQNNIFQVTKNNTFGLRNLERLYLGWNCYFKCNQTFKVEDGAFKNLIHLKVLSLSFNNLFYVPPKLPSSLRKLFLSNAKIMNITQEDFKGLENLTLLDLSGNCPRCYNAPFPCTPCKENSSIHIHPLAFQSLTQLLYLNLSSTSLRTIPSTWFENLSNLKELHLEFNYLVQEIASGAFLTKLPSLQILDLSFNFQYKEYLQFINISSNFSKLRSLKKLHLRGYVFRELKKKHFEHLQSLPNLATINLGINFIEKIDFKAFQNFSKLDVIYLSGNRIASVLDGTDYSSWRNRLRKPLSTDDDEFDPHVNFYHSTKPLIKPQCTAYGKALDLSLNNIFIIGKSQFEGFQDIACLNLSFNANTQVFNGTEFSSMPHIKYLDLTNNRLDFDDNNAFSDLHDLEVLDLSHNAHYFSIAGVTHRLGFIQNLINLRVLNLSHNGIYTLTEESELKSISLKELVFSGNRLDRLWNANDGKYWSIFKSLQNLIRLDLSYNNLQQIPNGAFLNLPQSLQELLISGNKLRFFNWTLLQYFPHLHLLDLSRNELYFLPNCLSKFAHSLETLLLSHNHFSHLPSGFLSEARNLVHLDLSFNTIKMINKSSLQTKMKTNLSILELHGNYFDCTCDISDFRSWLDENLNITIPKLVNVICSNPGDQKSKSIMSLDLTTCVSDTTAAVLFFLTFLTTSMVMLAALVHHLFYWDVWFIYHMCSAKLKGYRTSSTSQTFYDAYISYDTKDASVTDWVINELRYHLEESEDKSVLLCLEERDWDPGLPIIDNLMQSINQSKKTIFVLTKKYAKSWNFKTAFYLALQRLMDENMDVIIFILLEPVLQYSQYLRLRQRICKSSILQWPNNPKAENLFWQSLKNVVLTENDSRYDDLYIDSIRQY
Procedure: (§1) In order to determine the inhibitory activities of the test-ligand, RAW 264.7 cells were pretreated with each candidate compound for 1 hour, then treated with Pam3CSK4 (synthetic triacyl lipopeptide; TLR1/2, Invitrogen), FSL-1 (synthetic diacyl lipoprotein, TLR2/6, 100 ng/ml), lipopolysaccharide (LPS, TLR4, Sigma Aldrich), imiquimod (IMQ, TLR7, Invitrogen), and ODN2395 (type C CpG repeat motif DNA oligo(5′-[…]-3), TLR9, Bioneer) ligand for 4 hours, and treated with poly I:C (I:C repeat motif double-stranded RNA, TLR3, Invitrogen) and TL8-506 (TLR8, Invitrogen) showing delayed reactivity for 24 hours. After activation of TLR, the supernatant was diluted in an appropriate ratio so as to measure within the standard dose range, transferred to a pre-coated 96-well assay plate, and then treated with mouse TNF-alpha secretion level in accordance with the manufacturer's instructions using a mouse-TNF-alpha ELISA-kit (Invitrogen).
(§2) In order to determine the inhibitory activities of SK41, SK50, SK58 and SK64 on various TLR signaling pathways, RAW 264.7 cells were cultured along with each compound and then stimulated with different TLR agonists. The TLR agonists used herein were Pam3CSK4 (TLR1/2), FSL-1 (TLR2/6), LPS (TLR4) and FLA-ST (TLR5) as cell surface TLRs, and poly I:C (TLR3) and TL8-506 (TLR8) as endosomal TLRs.

TLR4 = molecular target: T2, TLR4 (Mus musculus, UniProt Q9QUK6); assay: TNF-α secretion ELISA after LPS in RAW 264.7 cells; format: cell-based
T2 construct: endogenous in cells; host or cells: RAW 264.7
T2 sequence (Q9QUK6 26-835): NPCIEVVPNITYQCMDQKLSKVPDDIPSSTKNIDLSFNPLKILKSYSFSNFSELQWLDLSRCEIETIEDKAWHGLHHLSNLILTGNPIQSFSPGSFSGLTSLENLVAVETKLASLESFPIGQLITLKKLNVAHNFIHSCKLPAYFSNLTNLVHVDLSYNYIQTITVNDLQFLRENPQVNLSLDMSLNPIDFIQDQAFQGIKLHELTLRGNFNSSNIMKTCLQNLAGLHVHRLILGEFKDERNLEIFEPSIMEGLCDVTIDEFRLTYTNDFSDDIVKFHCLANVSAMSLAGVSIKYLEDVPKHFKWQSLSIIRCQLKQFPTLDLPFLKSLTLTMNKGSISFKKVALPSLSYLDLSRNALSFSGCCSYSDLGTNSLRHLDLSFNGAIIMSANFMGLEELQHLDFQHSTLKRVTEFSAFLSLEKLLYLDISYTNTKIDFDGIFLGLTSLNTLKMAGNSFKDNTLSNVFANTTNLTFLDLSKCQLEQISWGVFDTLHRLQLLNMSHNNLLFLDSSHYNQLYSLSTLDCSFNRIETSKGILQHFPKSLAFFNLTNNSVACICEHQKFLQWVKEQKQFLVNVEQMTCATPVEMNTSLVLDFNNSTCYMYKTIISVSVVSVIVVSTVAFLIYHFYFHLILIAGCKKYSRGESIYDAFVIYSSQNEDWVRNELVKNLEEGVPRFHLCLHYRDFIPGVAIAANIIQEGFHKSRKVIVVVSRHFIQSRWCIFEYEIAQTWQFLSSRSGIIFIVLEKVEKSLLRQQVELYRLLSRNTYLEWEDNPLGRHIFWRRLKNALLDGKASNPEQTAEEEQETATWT
T2 sequence (Q9JHF9 19-160 partner): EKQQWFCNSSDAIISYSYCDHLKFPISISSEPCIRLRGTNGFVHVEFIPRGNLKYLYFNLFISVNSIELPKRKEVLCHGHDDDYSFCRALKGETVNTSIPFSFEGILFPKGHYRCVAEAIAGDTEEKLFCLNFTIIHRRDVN
Procedure: as §1, §2

Row | SMILES | inhibitory activity against endosomal TLR8 (TNF-α secretion) (TLR8) | inhibitory activity against cell surface TLR4 (TNF-α secretion) (TLR4)
1 | Cc1cc2c(N)c3c(nc2n1CCCN(C)C)CCCCCC3 [SK41, 1-(3-(dimethylamino)propyl)-2-methyl-5,6,7,8,9,10-hexahydro-1H-cycloocta[b]pyrrolo[3,2-e]pyridin-4-amine] | strong inhibitory activity; also recorded: specific inhibitory activities | did not exhibit a specific inhibitory activity; also recorded: no inhibitory activities
2 | COc1ccc2c(c1)c1c(N)c3c(nc1n2CCCN(C)C)CCCC3 [SK50, 6-(3-(dimethylamino)propyl)-9-methoxy-2,3,4,6-tetrahydro-1H-indolo[2,3-b]quinolin-11-amine] | strong inhibitory activity; also recorded: specific inhibitory activities | did not exhibit a specific inhibitory activity; also recorded: no inhibitory activities
3 | Cc1ccc2c(c1)c1c(N)c3c(nc1n2CCCN(C)C)CCCC3 [SK58, 6-(3-(dimethylamino)propyl)-9-methyl-2,3,4,6-tetrahydro-1H-indolo[2,3-b]quinolin-11-amine] | strong inhibitory activity; also recorded: specific inhibitory activities | did not exhibit a specific inhibitory activity; also recorded: no inhibitory activities
4 | COC(=O)c1ccc2c(c1)c1c(N)c3c(nc1n2CCCN(C)C)CCCC3 [SK64, Methyl 11-amino-6-(3-(dimethylamino)propyl)-2,3,4,6-tetrahydro-1H-indolo[2,3-b]quinolin-9-carboxylate] | strong inhibitory activity; also recorded: specific inhibitory activities | did not exhibit a specific inhibitory activity; also recorded: no inhibitory activities

— patent publication US12516058B2, “Small-molecule compounds for controlling endosomal toll-like receptors and therapeutic agent for autoimmune diseases using same” (priority 2020, dated 2026)
